Key:
Assay type in all cases: biochemical
AKT = target: T1, AKT (Homo sapiens, UniProt Q9Y243); assay: Kinase inhibition assay (33P transfer), AKT; conditions: Table 2, class symbols A-E; read-out: AKT3-1
T1 construct: Kinases are expressed as either kinase domains or full length constructs; made in house
Procedure, shortened: (§1)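 Liquid scintillation counting of 33P on plate-bound synthetic substrates gives kinase activity. Plates are washed in 0.5% phosphoric acid first; kinases are tagged recombinant proteins from E. coli or baculovirus-infected High Five cells.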

IGFR-1 = target: T2, IGFR-1 (Homo sapiens, UniProt P08069); assay: Kinase inhibition assay (33P transfer), IGFR-1; conditions: Table 2, class symbols A-E
T2 construct: Kinases are expressed as either kinase domains or full length constructs; made in house

EGFR = target: T3, EGFR (Homo sapiens, UniProt P00533); assay: Kinase inhibition assay (33P transfer), EGFR; conditions: Table 2, class symbols A-E; read-out: EGFR-1
T3 construct: Kinases are expressed as either kinase domains or full length constructs; made in house
Procedure, shortened: (§2)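 Radiometric format: recombinant tagged kinase (catalytic domain or whole protein, sometimes combined with regulatory polypeptides) phosphorylates immobilised poly(Glu,Tyr) 4:1 or poly(Arg,Ser) 3:1 using [33P]ATP. Wells are washed in 0.5% phosphoric acid, then counted. IC50 is taken where substrate labelling falls by half.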

c-Met = target: T4, c-Met (Homo sapiens, UniProt P08581); assay: Kinase inhibition assay (33P transfer), c-Met; conditions: Table 2, class symbols A-E; read-out: Met-1
T4 construct: Kinases are expressed as either kinase domains or full length constructs; made in house
Procedure, shortened: as §2

ErbB2 = target: T5, ErbB2 (Homo sapiens, UniProt P04626); assay: Kinase inhibition assay (33P transfer), ErbB2; conditions: read-out: ErbB2-2
T5 construct: Kinases are expressed as either kinase domains or full length constructs; made in house
Procedure, shortened: as §2

PDGFRB = target: T6, PDGFRB (Homo sapiens, UniProt P09619); assay: Kinase inhibition assay (33P transfer), PDGFRB; conditions: read-out: PDGFRB-1
T6 construct: Kinases are expressed as either kinase domains or full length constructs; made in house

Lck = target: T7, Lck (Homo sapiens, UniProt P06239); assay: Kinase inhibition assay (33P transfer), Lck; conditions: Table 3, class symbols; read-out: Lck-1
T7 construct: Kinases are expressed as either kinase domains or full length constructs; made in house
Procedure, shortened: as §1

Itk = target: T8, Itk (Homo sapiens, UniProt Q08881); assay: Kinase inhibition assay (33P transfer), Itk; conditions: Table 3, class symbols; read-out: Itk-1
T8 construct: Kinases are expressed as either kinase domains or full length constructs; made in house
T8 sequence (Q08881 1-620): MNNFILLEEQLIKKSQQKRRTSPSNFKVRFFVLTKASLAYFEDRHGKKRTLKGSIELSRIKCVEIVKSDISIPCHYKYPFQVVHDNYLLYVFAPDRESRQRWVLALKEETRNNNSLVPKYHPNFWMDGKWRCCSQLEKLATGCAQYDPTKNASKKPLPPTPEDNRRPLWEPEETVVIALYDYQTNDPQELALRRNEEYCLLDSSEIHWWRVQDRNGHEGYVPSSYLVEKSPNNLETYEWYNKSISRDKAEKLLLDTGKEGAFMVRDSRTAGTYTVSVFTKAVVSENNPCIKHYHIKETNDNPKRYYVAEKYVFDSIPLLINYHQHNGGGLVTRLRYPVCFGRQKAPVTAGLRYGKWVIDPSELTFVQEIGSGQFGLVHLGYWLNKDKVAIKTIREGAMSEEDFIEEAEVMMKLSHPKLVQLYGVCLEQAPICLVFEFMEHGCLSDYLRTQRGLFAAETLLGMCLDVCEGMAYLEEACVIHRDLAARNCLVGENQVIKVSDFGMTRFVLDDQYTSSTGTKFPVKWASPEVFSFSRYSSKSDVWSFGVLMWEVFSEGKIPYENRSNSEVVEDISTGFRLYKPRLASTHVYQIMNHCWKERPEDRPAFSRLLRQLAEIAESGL
Procedure, shortened: as §2

Zap-70 = target: T9, Zap-70 (Homo sapiens, UniProt P43403); assay: Kinase inhibition assay (33P transfer), Zap-70; conditions: Table 3, class symbols; read-out: Zap-1
T9 construct: Kinases are expressed as either kinase domains or full length constructs; made in house
T9 sequence (P43403 1-619): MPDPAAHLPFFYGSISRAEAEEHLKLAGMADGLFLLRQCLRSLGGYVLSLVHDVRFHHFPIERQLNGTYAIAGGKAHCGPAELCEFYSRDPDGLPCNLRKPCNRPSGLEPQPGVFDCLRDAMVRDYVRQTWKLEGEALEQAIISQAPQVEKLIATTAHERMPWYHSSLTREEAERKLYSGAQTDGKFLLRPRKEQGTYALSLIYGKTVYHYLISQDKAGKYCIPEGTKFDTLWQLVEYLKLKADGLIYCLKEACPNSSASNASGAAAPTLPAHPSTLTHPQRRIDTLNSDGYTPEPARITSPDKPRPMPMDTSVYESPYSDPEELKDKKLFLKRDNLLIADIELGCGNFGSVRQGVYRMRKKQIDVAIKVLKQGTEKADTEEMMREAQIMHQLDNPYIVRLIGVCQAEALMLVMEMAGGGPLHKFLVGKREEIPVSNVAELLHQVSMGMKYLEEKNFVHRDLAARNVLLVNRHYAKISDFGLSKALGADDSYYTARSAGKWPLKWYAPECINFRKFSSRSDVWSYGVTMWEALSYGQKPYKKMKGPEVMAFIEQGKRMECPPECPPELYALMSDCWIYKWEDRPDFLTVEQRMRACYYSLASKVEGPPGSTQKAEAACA
Procedure, shortened: as §1

Kdr = target: T10, Kdr (Homo sapiens, UniProt P35968); assay: Kinase inhibition assay (33P transfer), Kdr; conditions: Table 3, class symbols; read-out: KDR-1
T10 construct: Kinases are expressed as either kinase domains or full length constructs; made in house
Procedure, shortened: as §1

T4 sequence (P08581 25-1390): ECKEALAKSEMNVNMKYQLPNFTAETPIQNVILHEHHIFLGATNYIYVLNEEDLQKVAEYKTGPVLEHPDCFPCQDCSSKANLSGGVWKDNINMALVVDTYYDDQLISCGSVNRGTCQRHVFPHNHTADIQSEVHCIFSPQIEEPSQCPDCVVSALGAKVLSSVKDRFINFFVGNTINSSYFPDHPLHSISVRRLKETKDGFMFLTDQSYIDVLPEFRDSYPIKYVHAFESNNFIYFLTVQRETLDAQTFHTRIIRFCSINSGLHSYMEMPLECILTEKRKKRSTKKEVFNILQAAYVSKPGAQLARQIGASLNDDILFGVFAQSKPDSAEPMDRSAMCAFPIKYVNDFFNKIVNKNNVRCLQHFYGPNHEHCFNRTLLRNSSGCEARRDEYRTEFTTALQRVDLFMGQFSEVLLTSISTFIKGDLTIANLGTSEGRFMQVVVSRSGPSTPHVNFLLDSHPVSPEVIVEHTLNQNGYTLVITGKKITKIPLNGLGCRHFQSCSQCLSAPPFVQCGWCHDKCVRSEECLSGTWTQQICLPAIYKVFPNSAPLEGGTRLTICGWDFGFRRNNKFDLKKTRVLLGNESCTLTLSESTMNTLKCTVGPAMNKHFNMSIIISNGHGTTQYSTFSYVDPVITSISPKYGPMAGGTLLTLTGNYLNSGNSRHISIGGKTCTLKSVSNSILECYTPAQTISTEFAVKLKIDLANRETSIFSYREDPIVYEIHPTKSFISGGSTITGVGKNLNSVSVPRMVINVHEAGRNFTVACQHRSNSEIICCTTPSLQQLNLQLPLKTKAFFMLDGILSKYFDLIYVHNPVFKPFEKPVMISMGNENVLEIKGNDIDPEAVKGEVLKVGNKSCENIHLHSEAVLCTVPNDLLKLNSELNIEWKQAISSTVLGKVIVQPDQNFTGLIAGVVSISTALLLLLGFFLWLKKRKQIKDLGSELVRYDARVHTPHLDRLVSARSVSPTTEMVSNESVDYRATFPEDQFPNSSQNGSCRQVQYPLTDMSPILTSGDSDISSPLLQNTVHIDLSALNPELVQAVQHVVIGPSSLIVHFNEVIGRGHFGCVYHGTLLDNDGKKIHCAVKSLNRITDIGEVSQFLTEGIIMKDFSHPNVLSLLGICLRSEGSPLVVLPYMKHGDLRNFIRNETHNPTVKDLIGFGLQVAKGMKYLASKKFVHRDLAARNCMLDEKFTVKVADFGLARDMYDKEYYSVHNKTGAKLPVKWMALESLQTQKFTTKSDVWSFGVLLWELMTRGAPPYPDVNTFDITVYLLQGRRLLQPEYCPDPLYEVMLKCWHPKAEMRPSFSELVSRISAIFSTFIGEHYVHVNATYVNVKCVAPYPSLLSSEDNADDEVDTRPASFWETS
T3 sequence (P00533 25-1210, species assumed): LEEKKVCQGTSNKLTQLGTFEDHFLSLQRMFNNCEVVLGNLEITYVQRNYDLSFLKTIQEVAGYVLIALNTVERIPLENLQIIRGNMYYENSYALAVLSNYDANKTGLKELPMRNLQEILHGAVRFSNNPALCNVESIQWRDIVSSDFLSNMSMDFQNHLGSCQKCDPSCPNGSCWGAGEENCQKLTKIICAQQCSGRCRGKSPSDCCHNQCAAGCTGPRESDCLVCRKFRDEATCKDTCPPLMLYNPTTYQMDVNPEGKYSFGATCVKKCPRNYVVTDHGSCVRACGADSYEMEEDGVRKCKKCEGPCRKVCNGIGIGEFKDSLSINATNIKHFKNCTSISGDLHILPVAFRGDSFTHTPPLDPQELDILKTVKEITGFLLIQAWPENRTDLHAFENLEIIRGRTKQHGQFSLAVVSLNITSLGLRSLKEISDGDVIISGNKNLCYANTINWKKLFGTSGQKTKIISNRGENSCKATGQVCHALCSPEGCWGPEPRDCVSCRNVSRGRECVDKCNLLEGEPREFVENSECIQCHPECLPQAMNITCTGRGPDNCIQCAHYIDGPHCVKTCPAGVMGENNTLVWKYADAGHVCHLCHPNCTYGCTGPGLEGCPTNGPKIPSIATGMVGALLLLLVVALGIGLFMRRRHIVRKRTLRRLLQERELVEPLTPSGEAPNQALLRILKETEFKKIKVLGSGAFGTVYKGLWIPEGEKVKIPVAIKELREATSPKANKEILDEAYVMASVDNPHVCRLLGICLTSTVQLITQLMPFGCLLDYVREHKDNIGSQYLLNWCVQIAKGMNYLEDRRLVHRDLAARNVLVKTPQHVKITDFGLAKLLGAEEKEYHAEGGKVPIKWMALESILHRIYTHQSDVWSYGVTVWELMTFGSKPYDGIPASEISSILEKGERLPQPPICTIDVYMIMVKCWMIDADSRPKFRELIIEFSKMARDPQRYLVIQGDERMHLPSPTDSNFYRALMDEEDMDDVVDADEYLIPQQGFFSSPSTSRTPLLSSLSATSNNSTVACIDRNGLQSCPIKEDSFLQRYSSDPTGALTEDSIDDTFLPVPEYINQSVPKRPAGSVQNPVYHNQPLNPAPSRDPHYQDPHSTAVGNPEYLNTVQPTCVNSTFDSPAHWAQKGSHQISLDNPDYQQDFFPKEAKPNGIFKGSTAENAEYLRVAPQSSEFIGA
T6 sequence (P09619 33-1106, species assumed): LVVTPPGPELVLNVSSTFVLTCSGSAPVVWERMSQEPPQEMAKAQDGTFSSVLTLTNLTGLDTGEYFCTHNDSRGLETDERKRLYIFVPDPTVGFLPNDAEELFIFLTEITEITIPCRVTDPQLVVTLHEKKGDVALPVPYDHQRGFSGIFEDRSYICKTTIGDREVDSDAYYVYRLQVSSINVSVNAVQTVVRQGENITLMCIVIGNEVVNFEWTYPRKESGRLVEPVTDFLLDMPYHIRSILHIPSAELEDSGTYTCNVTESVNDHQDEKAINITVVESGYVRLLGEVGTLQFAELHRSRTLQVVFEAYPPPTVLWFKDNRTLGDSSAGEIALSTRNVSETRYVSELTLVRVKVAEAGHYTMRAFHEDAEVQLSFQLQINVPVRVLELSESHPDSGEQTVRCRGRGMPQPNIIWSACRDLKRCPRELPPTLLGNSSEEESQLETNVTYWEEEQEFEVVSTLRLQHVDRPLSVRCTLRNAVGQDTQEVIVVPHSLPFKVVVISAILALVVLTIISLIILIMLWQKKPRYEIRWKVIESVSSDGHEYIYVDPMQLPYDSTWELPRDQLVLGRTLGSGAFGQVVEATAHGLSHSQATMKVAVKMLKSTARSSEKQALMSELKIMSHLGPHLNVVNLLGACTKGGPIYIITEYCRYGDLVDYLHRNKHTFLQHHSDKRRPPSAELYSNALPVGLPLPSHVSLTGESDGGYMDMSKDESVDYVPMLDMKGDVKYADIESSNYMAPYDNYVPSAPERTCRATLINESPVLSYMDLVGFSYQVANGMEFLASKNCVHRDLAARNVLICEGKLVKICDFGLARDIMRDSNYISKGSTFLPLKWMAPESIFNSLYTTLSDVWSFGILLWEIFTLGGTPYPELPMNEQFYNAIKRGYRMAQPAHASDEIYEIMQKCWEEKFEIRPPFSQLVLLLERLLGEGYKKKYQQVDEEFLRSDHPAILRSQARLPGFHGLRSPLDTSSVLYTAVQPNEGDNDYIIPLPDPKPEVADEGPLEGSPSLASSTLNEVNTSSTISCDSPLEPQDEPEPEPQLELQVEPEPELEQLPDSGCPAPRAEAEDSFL
T1 sequence (Q9Y243 whole entry, the tested form may be a part): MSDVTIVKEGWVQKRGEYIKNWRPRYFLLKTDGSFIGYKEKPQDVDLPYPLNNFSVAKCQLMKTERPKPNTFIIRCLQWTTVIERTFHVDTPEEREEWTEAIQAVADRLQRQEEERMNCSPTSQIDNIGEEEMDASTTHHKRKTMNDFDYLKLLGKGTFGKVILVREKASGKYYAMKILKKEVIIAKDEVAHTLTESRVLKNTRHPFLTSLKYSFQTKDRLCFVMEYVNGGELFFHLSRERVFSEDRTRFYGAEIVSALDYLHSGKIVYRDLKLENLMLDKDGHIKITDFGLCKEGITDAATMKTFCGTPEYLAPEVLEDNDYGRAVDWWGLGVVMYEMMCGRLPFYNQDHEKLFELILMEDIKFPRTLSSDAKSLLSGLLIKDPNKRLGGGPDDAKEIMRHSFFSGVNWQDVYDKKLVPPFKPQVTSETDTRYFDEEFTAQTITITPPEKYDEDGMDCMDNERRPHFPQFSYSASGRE
T7 sequence (P06239 whole entry, species assumed, the tested form may be a part): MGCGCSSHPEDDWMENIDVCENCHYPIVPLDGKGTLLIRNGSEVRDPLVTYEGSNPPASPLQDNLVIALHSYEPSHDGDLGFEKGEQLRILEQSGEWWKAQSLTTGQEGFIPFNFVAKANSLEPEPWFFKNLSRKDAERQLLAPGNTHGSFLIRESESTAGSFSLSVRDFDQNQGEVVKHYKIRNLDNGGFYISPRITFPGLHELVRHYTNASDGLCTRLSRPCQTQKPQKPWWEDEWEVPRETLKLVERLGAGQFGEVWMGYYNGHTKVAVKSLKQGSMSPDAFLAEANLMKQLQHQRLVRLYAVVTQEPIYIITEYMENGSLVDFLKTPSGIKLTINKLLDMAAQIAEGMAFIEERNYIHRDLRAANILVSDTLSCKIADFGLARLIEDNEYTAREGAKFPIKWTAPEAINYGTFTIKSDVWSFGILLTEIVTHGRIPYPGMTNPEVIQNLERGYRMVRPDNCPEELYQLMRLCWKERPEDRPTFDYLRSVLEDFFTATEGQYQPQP

Compound | IC50 (AKT) [µM] | IC50 (IGFR-1) [µM] | IC50 (EGFR) [µM] | IC50 (c-Met) [µM] | IC50 (ErbB2) [µM] | IC50 (PDGFRB) [µM] | IC50 (Lck) [µM] | IC50 (Itk) [µM] | IC50 (Zap-70) [µM] | IC50 (Kdr) [µM]
NC(=O)Cc1cccc(Nc2ncnc(-n3c(NCc4ccccc4)nc4ccccc43)n2)c1 [Compound 967] | 7.77 to 9.99 | > 9.99 | < 0.888 | 5.33 to 7.77 | 0.888 to 5.33 | < 0.888 | < 0.888 | 7.77 to 9.99 | > 9.99 | < 0.888
COc1cc(Nc2ncnc(-c3cccnc3Nc3ccc(C(F)(F)F)cc3)n2)cc(OC)c1OC [Compound 835] | > 9.03 | > 9.03 | > 9.03 | > 9.03 | > 9.03 | > 9.03 | > 9.03 | > 9.03 | > 9.03 | > 9.03
CCN(CC)CCN(C)c1ncnc(Nc2ccc(OC)c(OC)c2)n1 [Compound 870] | > 12.5 | > 12.5 | > 12.5 | > 12.5 | > 12.5 | > 12.5 | > 12.5 | > 12.5 | > 12.5 | > 12.5
COc1cc(C)c(Nc2ncnc(Nc3cc(-c4ccc(C)cc4)n[nH]3)n2)cc1OC [Compound 1127] | > 10.8 | < 0.958 | > 10.8 | < 0.958 | > 10.8 | > 10.8 | > 10.8 | > 10.8 | > 10.8 | > 10.8
O=C(O)CCNC(=O)c1ccc(Nc2ncnc(Nc3cc(-c4ccco4)[nH]n3)n2)cc1 [Compound 885] | 8.06 to 10.4 | 0.921 to 5.52 | 0.921 to 5.52 | 0.921 to 5.52 | 0.921 to 5.52 | 0.921 to 5.52 | > 10.4 | 0.921 to 5.52 | 5.52 to 8.06 | < 0.921
Cc1ccc(Cl)cc1Nc1ncnc(Nc2cc(Cl)ccc2C)n1 [Compound 638] | > 12.5 | 9.72 to 12.5 | < 1.11 | > 12.5 | 9.72 to 12.5 | 1.11 to 6.66 | > 12.5 | > 12.5 | > 12.5 | 9.72 to 12.5
COc1ccc(Nc2ncnc(N(C)c3ccc(Cl)cc3)n2)cc1OC [Compound 795] | > 12.1 | 9.41 to 12.1 | < 1.08 | < 1.08 | < 1.08 | < 1.08 | 1.08 to 6.45 | > 12.1 | > 12.1 | 1.08 to 6.45
O=C(O)Cc1cccc(Nc2ncnc(-c3cccnc3Nc3ccccc3)n2)c1 [Compound 1094] | > 11.3 | > 11.3 | 1 to 6.02 | 1 to 6.02 | 6.02 to 8.78 | < 1 | > 11.3 | > 11.3 | 6.02 to 8.78 | < 1
COc1ccc(Nc2ncnc(Nc3ccc4c(c3)CCC4)n2)cc1OC [Compound 896] | 6.6 to 9.63 | 1.1 to 6.6 | 1.1 to 6.6 | 1.1 to 6.6 | 1.1 to 6.6 | < 1.1 | > 12.4 | 6.6 to 9.63 | > 12.4 | 6.6 to 9.63

Continued, values first:

IC50 (AKT) [µM] | IC50 (IGFR-1) [µM] | IC50 (EGFR) [µM] | IC50 (c-Met) [µM] | IC50 (ErbB2) [µM] | IC50 (PDGFRB) [µM] | IC50 (Lck) [µM] | IC50 (Itk) [µM] | IC50 (Zap-70) [µM] | IC50 (Kdr) [µM] | Compound
> 9.52 | > 9.52 | > 9.52 | 0.847 to 5.08 | > 9.52 | > 9.52 | > 9.52 | > 9.52 | > 9.52 | 0.847 to 5.08 | COc1cc(Nc2ncnc(-c3cccnc3Nc3ccc(C(C)=O)cc3)n2)cc(OC)c1OC [Compound 832]
> 10.7 | > 10.7 | > 10.7 | > 10.7 | > 10.7 | 0.954 to 5.72 | > 10.7 | > 10.7 | > 10.7 | > 10.7 | COC(=O)c1ccc(-c2cc(Nc3ncnc(NCc4ccccc4F)n3)[nH]n2)cc1 [Compound 814]
> 14.5 | 1.29 to 7.73 | 1.29 to 7.73 | 1.29 to 7.73 | 1.29 to 7.73 | 1.29 to 7.73 | > 14.5 | 1.29 to 7.73 | > 14.5 | 1.29 to 7.73 | c1coc(-c2cc(Nc3ncnc(Nc4nc[nH]n4)n3)n[nH]2)c1 [Compound 889]
0.97 to 5.82 | 5.82 to 8.49 | 0.97 to 5.82 | > 10.9 | > 10.9 | < 0.97 | 5.82 to 8.49 | 5.82 to 8.49 | 5.82 to 8.49 | < 0.97 | Fc1ccc(CNc2ncccc2-c2ncnc(Nc3ccc4[nH]ncc4c3)n2)cc1 [Compound 1108]
> 11.4 | > 11.4 | > 11.4 | > 11.4 | > 11.4 | 1.01 to 6.05 | > 11.4 | > 11.4 | > 11.4 | > 11.4 | COC(=O)c1ccc(-c2cc(Nc3ncnc(NCCNC(C)=O)n3)[nH]n2)cc1 [Compound 819]
0.838 to 5.03 | 5.03 to 7.33 | 0.838 to 5.03 | 0.838 to 5.03 | 0.838 to 5.03 | > 9.43 | > 9.43 | > 9.43 | > 9.43 | 0.838 to 5.03 | FC(F)(F)Oc1ccc(Nc2ncnc(Nc3ccc4c(cnn4Cc4ccccc4)c3)n2)cc1 [Compound 906]
> 9.77 | > 9.77 | 7.6 to 9.77 | > 9.77 | 0.869 to 5.21 | 0.869 to 5.21 | > 9.77 | > 9.77 | > 9.77 | < 0.869 | COc1cccc(Nc2ncccc2-c2ncnc(Nc3cc(OC)c(OC)c(OC)c3)n2)c1 [Compound 829]
> 10.5 | > 10.5 | 0.929 to 5.58 | 8.13 to 10.5 | 0.929 to 5.58 | < 0.929 | 8.13 to 10.5 | > 10.5 | > 10.5 | < 0.929 | O=C(O)Cc1cccc(Nc2ncnc(-c3cccnc3NCc3ccc(F)cc3)n2)c1 [Compound 1100]
> 9.29 | > 9.29 | > 9.29 | > 9.29 | > 9.29 | > 9.29 | > 9.29 | > 9.29 | > 9.29 | > 9.29 | COc1cc(Nc2ncnc(-c3cccnc3Nc3cccc4c3CCCC4)n2)cc(OC)c1OC [Compound 841]
1 to 6.01 | 1 to 6.01 | < 1 | 1 to 6.01 | 1 to 6.01 | 1 to 6.01 | 8.76 to 11.3 | 1 to 6.01 | 6.01 to 8.76 | < 1 | O=S(=O)(O)c1cccc(Nc2ncnc(Nc3cc(-c4ccco4)[nH]n3)n2)c1 [Compound 825]
> 9.88 | > 9.88 | > 9.88 | > 9.88 | > 9.88 | > 9.88 | > 9.88 | > 9.88 | > 9.88 | > 9.88 | COc1cc(Nc2ncnc(-c3cccnc3Nc3cccc(C#N)c3)n2)cc(OC)c1OC [Compound 828]
